Results from PubChem BioAssay AID2060883 (Molecular Pharmacology Branch, DTP, NCI, 2025).

Test system: 843782-103-R-J1-PDC complex spheroid viability
Test: Anticancer human tumor 843782-103-R-J1-PDC patient-derived lung adenocarcinoma cell line growth inhibition [RAS]
Settings: for IC50: curve of first compound; for viability, T/C: stronger effect = lower value
Outline: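 Tumour cells grown as complex spheroids with HUVEC endothelial cells and mesenchymal stem cells, treated with RAS pathway inhibitor combinations. Each agent spans half-log steps from near clinical Cmax, or 10 microM where Cmax is unknown.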

[1] = second compound 0.000949 µM, first compound 0.0316 µM
[2] = second compound 0.000949 µM, first compound 0.1 µM
[3] = second compound 0.000949 µM, first compound 0.316 µM
[4] = second compound 0.000949 µM, first compound 1 µM
[5] = second compound 0.003 µM, first compound 0.0316 µM
[6] = second compound 0.003 µM, first compound 0.1 µM
[7] = second compound 0.003 µM, first compound 0.316 µM
[8] = second compound 0.003 µM, first compound 1 µM
[9] = second compound 0.00949 µM, first compound 0.0316 µM
[10] = second compound 0.00949 µM, first compound 0.1 µM
[11] = second compound 0.00949 µM, first compound 0.316 µM
[12] = second compound 0.00949 µM, first compound 1 µM
[13] = second compound 0.03 µM, first compound 0.0316 µM
[14] = second compound 0.03 µM, first compound 0.1 µM
[15] = second compound 0.03 µM, first compound 0.316 µM
[16] = second compound 0.03 µM, first compound 1 µM
[17] = second compound 0.0949 µM, first compound 0.0316 µM
[18] = second compound 0.0949 µM, first compound 0.1 µM
[19] = second compound 0.0949 µM, first compound 0.316 µM
[20] = second compound 0.0949 µM, first compound 1 µM
[21] = second compound 0.3 µM, first compound 0.0316 µM
[22] = second compound 0.3 µM, first compound 0.1 µM
[23] = second compound 0.3 µM, first compound 0.316 µM
[24] = second compound 0.3 µM, first compound 1 µM
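Note: viability read after seven days of compound exposure.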

## CC(=O)OC12COC1CC(O)C1(C)C(=O)C(O)C3=C(C)C(OC(=O)C(O)C(NC(=O)OC(C)(C)C)c4ccccc4)CC(O)(C(OC(=O)c4ccccc4)C21)C3(C)C (stereo unspecified) + CCn1c(-c2cc(N3CCN(C)CC3)cnc2C(C)OC)c2c3cc(ccc31)-c1csc(n1)CC(NC(=O)C1CC1C)C(=O)N1CCCC(N1)C(=O)OCC(C)(C)C2
Second compound 0.000949 µM
  IC50: < 31.6 nM
Second compound 0.003 µM
  IC50: < 31.6 nM
Second compound 0.00949 µM
  IC50: < 31.6 nM
Second compound 0.03 µM
  IC50: < 31.6 nM
Second compound 0.0949 µM
  IC50: < 31.6 nM
Second compound 0.3 µM
  IC50: < 31.6 nM
[1]
  viability, T/C: 4.09%
[2]
  viability, T/C: 3.3%
[3]
  viability, T/C: 4.43%
[4]
  viability, T/C: 4.14%
Second compound 0.000949 µM, first compound 3.16 µM
  viability, T/C: 4.74%
Second compound 0.000949 µM, first compound 10 µM
  viability, T/C: 5.86%
[5]
  viability, T/C: 3.09%
[6]
  viability, T/C: 3.12%
[7]
  viability, T/C: 3.99%
[8]
  viability, T/C: 3.29%
Second compound 0.003 µM, first compound 3.16 µM
  viability, T/C: 6.91%
Second compound 0.003 µM, first compound 10 µM
  viability, T/C: 8.55%
[9]
  viability, T/C: 4.74%
[10]
  viability, T/C: 4.97%
[11]
  viability, T/C: 5.9%
[12]
  viability, T/C: 4.93%
Second compound 0.00949 µM, first compound 3.16 µM
  viability, T/C: 5.8%
Second compound 0.00949 µM, first compound 10 µM
  viability, T/C: 8.1%
[13]
  viability, T/C: 5.08%
[14]
  viability, T/C: 4.74%
[15]
  viability, T/C: 7.03%
[16]
  viability, T/C: 5.84%
Second compound 0.03 µM, first compound 3.16 µM
  viability, T/C: 6.77%
Second compound 0.03 µM, first compound 10 µM
  viability, T/C: 7.36%
[17]
  viability, T/C: 6.75%
[18]
  viability, T/C: 7.55%
[19]
  viability, T/C: 6%
[20]
  viability, T/C: 8.09%
Second compound 0.0949 µM, first compound 3.16 µM
  viability, T/C: 7.2%
Second compound 0.0949 µM, first compound 10 µM
  viability, T/C: 7.32%
[21]
  viability, T/C: 6.51%
[22]
  viability, T/C: 6.53%
[23]
  viability, T/C: 8.66%
[24]
  viability, T/C: 8.26%
Second compound 0.3 µM, first compound 3.16 µM
  viability, T/C: 9.04%
Second compound 0.3 µM, first compound 10 µM
  viability, T/C: 7.8%

## CCc1c2c(nc3ccc(O)cc13)-c1cc3c(c(=O)n1C2)COC(=O)[C@]3(O)CC + CCn1c(-c2cc(N3CCN(C)CC3)cnc2C(C)OC)c2c3cc(ccc31)-c1csc(n1)CC(NC(=O)C1CC1C)C(=O)N1CCCC(N1)C(=O)OCC(C)(C)C2
Second compound 0.000949 µM
  IC50: 1.49 nM
Second compound 0.003 µM
  IC50: 0.963 nM
Second compound 0.00949 µM
  IC50: < 0.949 nM
Second compound 0.03 µM
  IC50: < 0.949 nM
Second compound 0.0949 µM
  IC50: < 0.949 nM
Second compound 0.3 µM
  IC50: < 0.949 nM
Second compound 0.000949 µM, first compound 0.000949 µM
  viability, T/C: 68.4%
Second compound 0.000949 µM, first compound 0.003 µM
  viability, T/C: 21.8%
Second compound 0.000949 µM, first compound 0.00949 µM
  viability, T/C: 4.84%
Second compound 0.000949 µM, first compound 0.03 µM
  viability, T/C: 2.16%
Second compound 0.000949 µM, first compound 0.0949 µM
  viability, T/C: 1.13%
Second compound 0.000949 µM, first compound 0.3 µM
  viability, T/C: 0.96%
Second compound 0.003 µM, first compound 0.000949 µM
  viability, T/C: 50.8%
Second compound 0.003 µM, first compound 0.003 µM
  viability, T/C: 20.9%
Second compound 0.003 µM, first compound 0.00949 µM
  viability, T/C: 5.17%
Second compound 0.003 µM, first compound 0.03 µM
  viability, T/C: 1.82%
Second compound 0.003 µM, first compound 0.0949 µM
  viability, T/C: 1.45%
Second compound 0.003 µM, first compound 0.3 µM
  viability, T/C: 1.05%
Second compound 0.00949 µM, first compound 0.000949 µM
  viability, T/C: 38%
Second compound 0.00949 µM, first compound 0.003 µM
  viability, T/C: 17.9%
Second compound 0.00949 µM, first compound 0.00949 µM
  viability, T/C: 5.27%
Second compound 0.00949 µM, first compound 0.03 µM
  viability, T/C: 2.03%
Second compound 0.00949 µM, first compound 0.0949 µM
  viability, T/C: 2.15%
Second compound 0.00949 µM, first compound 0.3 µM
  viability, T/C: 0.92%
Second compound 0.03 µM, first compound 0.000949 µM
  viability, T/C: 18.9%
Second compound 0.03 µM, first compound 0.003 µM
  viability, T/C: 15.3%
Second compound 0.03 µM, first compound 0.00949 µM
  viability, T/C: 5.86%
Second compound 0.03 µM, first compound 0.03 µM
  viability, T/C: 2.53%
Second compound 0.03 µM, first compound 0.0949 µM
  viability, T/C: 1.38%
Second compound 0.03 µM, first compound 0.3 µM
  viability, T/C: 0.97%
Second compound 0.0949 µM, first compound 0.000949 µM
  viability, T/C: 14.2%
Second compound 0.0949 µM, first compound 0.003 µM
  viability, T/C: 13.4%
Second compound 0.0949 µM, first compound 0.00949 µM
  viability, T/C: 5.71%
Second compound 0.0949 µM, first compound 0.03 µM
  viability, T/C: 2.6%
Second compound 0.0949 µM, first compound 0.0949 µM
  viability, T/C: 1.4%
Second compound 0.0949 µM, first compound 0.3 µM
  viability, T/C: 1.46%
Second compound 0.3 µM, first compound 0.000949 µM
  viability, T/C: 13.5%
Second compound 0.3 µM, first compound 0.003 µM
  viability, T/C: 11.7%
Second compound 0.3 µM, first compound 0.00949 µM
  viability, T/C: 5.29%
Second compound 0.3 µM, first compound 0.03 µM
  viability, T/C: 2.41%
Second compound 0.3 µM, first compound 0.0949 µM
  viability, T/C: 1.96%
Second compound 0.3 µM, first compound 0.3 µM
  viability, T/C: 0.79%

## Nc1ccn(C2OC(CO)C(O)C2(F)F)c(=O)n1 (stereo unspecified) + CCn1c(-c2cc(N3CCN(C)CC3)cnc2C(C)OC)c2c3cc(ccc31)-c1csc(n1)CC(NC(=O)C1CC1C)C(=O)N1CCCC(N1)C(=O)OCC(C)(C)C2
Second compound 0.000949 µM
  IC50: 17.9 nM
Second compound 0.003 µM
  IC50: 11.5 nM
Second compound 0.00949 µM
  IC50: < 3.16 nM
Second compound 0.03 µM
  IC50: < 3.16 nM
Second compound 0.0949 µM
  IC50: < 3.16 nM
Second compound 0.3 µM
  IC50: < 3.16 nM
Second compound 0.000949 µM, first compound 0.00316 µM
  viability, T/C: 83.4%
Second compound 0.000949 µM, first compound 0.01 µM
  viability, T/C: 73.4%
[1]
  viability, T/C: 27.1%
[2]
  viability, T/C: 3.62%
[3]
  viability, T/C: 1.6%
[4]
  viability, T/C: 2.63%
Second compound 0.003 µM, first compound 0.00316 µM
  viability, T/C: 64.4%
Second compound 0.003 µM, first compound 0.01 µM
  viability, T/C: 54%
[5]
  viability, T/C: 20.3%
[6]
  viability, T/C: 3.76%
[7]
  viability, T/C: 1.56%
[8]
  viability, T/C: 1.61%
Second compound 0.00949 µM, first compound 0.00316 µM
  viability, T/C: 37.1%
Second compound 0.00949 µM, first compound 0.01 µM
  viability, T/C: 36.2%
[9]
  viability, T/C: 16.3%
[10]
  viability, T/C: 5.56%
[11]
  viability, T/C: 2.02%
[12]
  viability, T/C: 1.82%
Second compound 0.03 µM, first compound 0.00316 µM
  viability, T/C: 19%
Second compound 0.03 µM, first compound 0.01 µM
  viability, T/C: 22.7%
[13]
  viability, T/C: 15.8%
[14]
  viability, T/C: 7.32%
[15]
  viability, T/C: 2.39%
[16]
  viability, T/C: 1.81%
Second compound 0.0949 µM, first compound 0.00316 µM
  viability, T/C: 15.9%
Second compound 0.0949 µM, first compound 0.01 µM
  viability, T/C: 18.9%
[17]
  viability, T/C: 13.9%
[18]
  viability, T/C: 11.8%
[19]
  viability, T/C: 4.42%
[20]
  viability, T/C: 2.61%
Second compound 0.3 µM, first compound 0.00316 µM
  viability, T/C: 14.3%
Second compound 0.3 µM, first compound 0.01 µM
  viability, T/C: 16.6%
[21]
  viability, T/C: 16.6%
[22]
  viability, T/C: 12.6%
[23]
  viability, T/C: 7.82%
[24]
  viability, T/C: 3.72%
